In patent publication US9120770B2, “Substituted pyridine and pyrazine compounds as PDE4 inhibitors” (DART NEUROSCIENCE (CAYMAN) LTD., priority 2013, dated 2015):

Target: PDE4D3 (Homo sapiens, UniProt Q08499)
Sequence (Q08499 1-673 isoform Q08499-2): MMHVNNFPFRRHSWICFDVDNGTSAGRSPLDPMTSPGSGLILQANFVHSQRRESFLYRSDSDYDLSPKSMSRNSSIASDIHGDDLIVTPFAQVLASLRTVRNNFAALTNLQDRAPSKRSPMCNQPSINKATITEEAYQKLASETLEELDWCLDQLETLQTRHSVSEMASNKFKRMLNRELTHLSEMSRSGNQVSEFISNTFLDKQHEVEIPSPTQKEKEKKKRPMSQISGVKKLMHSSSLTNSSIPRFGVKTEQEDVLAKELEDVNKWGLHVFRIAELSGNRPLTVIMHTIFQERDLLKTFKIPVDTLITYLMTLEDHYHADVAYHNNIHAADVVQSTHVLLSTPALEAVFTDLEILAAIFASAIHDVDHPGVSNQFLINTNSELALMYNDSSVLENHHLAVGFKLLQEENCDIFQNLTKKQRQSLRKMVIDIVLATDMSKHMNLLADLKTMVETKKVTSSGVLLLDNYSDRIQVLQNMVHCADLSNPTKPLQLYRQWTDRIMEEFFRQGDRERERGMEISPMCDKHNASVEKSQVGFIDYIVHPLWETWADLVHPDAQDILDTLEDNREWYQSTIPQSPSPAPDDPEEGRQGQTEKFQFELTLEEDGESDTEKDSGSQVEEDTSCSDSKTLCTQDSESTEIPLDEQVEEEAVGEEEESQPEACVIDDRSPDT

SMILES | EC50
COc1ncc(Cc2cnc(C)nc2)cc1-c1cccc(Cl)c1 [Example 75, 5-{[5-(3-Chlorophenyl)-6-methoxypyridin-3-yl]methyl}-2-methylpyrimidine] | 100 to 1000 nM
COc1ncc(Cc2ccc(C(N)=O)cc2)nc1-c1cccc(Cl)c1 [Example 113, 4-{[6-(3-Chlorophenyl)-5-methoxypyrazin-2-yl]methyl}benzamide] | 100 to 1000 nM
COc1ncn(Cc2cnc(OC)c(-c3cccc(Cl)c3)c2)n1 [Example 213, 3-(3-Chlorophenyl)-2-methoxy-5-[(3-methoxy-1H-1,2,4-triazol-1-yl)methyl]pyridine] | 100 to 1000 nM
FC(F)Oc1ncc(Cc2nccs2)cc1-c1cccc(Cl)c1 [Example 74, 3-(3-Chlorophenyl)-2-(difluoromethoxy)-5-(1,3-thiazol-2-ylmethyl)pyridine] | 100 to 1000 nM
COc1ncc(Cc2cccnc2)cc1-c1cccc(Cl)c1 [Example 64, 3-(3-Chlorophenyl)-2-methoxy-5-(pyridin-3-ylmethyl)pyridine] | 100 to 1000 nM
CCOc1ncc(Cn2ncnc2COC)cc1-c1cccc(OC(F)F)c1 [Example 166, 3-[3-(Difluoromethoxy)phenyl]-2-ethoxy-5-{[5-(methoxymethyl)-1H-1,2,4-triazol-1-yl]methyl}pyridine] | 100 to 1000 nM
COc1ncc(Cc2cnc(NCCN(C)C)nc2)cc1-c1cccc(Cl)c1 [Example 3, {2-[(5-{[5-(3-Chlorophenyl)-6-methoxypyridin-3-yl]methyl}pyrimidin-2-yl)amino]ethyl}dimethylamine] | 1000 to 10000 nM
FC(F)Oc1ncc(Cc2ccccn2)cc1-c1cccc(Cl)c1 [Example 109, 3-(3-Chlorophenyl)-2-(difluoromethoxy)-5-(pyridin-2-ylmethyl)pyridine] | 100 to 1000 nM
CCOc1ncc(Cn2cnc(C(F)(F)F)n2)nc1-c1cccc(OC(F)F)c1 [Example 187, 3-[3-(Difluoromethoxy)phenyl]-2-ethoxy-5-{[3-(trifluoromethyl)-1H-1,2,4-triazol-1-yl]methyl}pyrazine] | 1000 to 10000 nM
CCOc1ncc(Cn2cnc(COC)n2)nc1-c1cccc(OC(F)F)c1 [Example 189, 3-[3-(Difluoromethoxy)phenyl]-2-ethoxy-5-{[3-(methoxymethyl)-1H-1,2,4-triazol-1-yl]methyl}pyrazine] | 100 to 1000 nM
COc1ncc(Cn2cc([N+](=O)[O-])cn2)cc1-c1cccc(Cl)c1 [Example 180, 3-(3-Chlorophenyl)-2-methoxy-5-[(4-nitro-1H-pyrazol-1-yl)methyl]pyridine] | 100 to 1000 nM

Other lines, results leading:

EC50 | SMILES
< 100 nM | FC(F)Oc1ncc(Cn2ncnn2)cc1-c1cccc(Cl)c1 [Example 162, 3-(3-Chlorophenyl)-2-(difluoromethoxy)-5-(2H-1,2,3,4-tetrazol-2-ylmethyl)pyridine]
100 to 1000 nM | COc1ncc(Cc2ccc(C(F)(F)F)nc2)cc1-c1cccc(Cl)c1 [Example 49, 3-(3-Chlorophenyl)-2-methoxy-{[6-(trifluoromethyl)pyridin-3-yl]methyl}pyridine]
< 100 nM | COc1ncc(Cn2cnc(CF)n2)cc1-c1cccc(OC(F)F)c1 [Example 253, 3-[3-(Difluoromethoxy)phenyl]-5-{[3-(fluoromethyl)-1H-1,2,4-triazol-1-yl]methyl}-2-methoxypyridine]
< 100 nM | COc1ncc(Cc2cnc(C(C)(C)O)nc2)cc1-c1cccc(OC(F)F)c1 [Example 48, 2-[5-({5-[3-(Difluoromethoxy)phenyl]-6-methoxypyridin-3-yl}methyl)pyrimidin-2-yl]propan-2-ol]
< 100 nM | COc1ncc(Cn2cncn2)cc1-c1cccc(Cl)c1 [Example 134, 3-(3-Chlorophenyl)-2-methoxy-5-(1H-1,2,4-triazol-1-ylmethyl)pyridine]
< 100 nM | COc1ncc(Cc2cnc(C(N)=O)nc2)nc1-c1cccc(Cl)c1 [Example 123, 5-{[6-(3-Chlorophenyl)-5-methoxypyrazin-2-yl]methyl}pyrimidine-2-carboxamide]
